Where two headings read alike, the source gives them in different places.
Columns and labels:
Assay in all cases: Sensitivity test (agar dilution)
[1] = tested on: E. aerogenes ATCC13048; assay type: cell-based, Enterobacter aerogenes; conditions: Klebsiella aerogenes
Procedure, shortened: (§1)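 FIC index is computed from MICs of each drug alone versus in combination (≤1 = enhancement, >1 = none). MICs are measured on Mueller Hinton agar plates carrying twofold dilution series and inoculated with about 10^6 CFU/ml bacterial suspension.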

[2] = tested on: C. freundii GN346; assay type: cell-based, Citrobacter freundii; conditions: Citrobacter freundii
Procedure, shortened: as §1

[3] = tested on: P. aeruginosa TL-2666; assay type: cell-based, Pseudomonas aeruginosa; conditions: Pseudomonas aeruginosa
Procedure, shortened: as §1

[4] = tested on: P. aeruginosa TL-2667; assay type: cell-based, Pseudomonas aeruginosa; conditions: Pseudomonas aeruginosa
Procedure, shortened: as §1

C[C@H]1C=C(c2csc(SC3=C(C(=O)O)N4C(=O)[C@H]([C@@H](C)O)[C@H]4[C@H]3C)n2)CN1 [SM, (4R,5S,6S)-6-[(1R)-1-Hydroxyethyl]-4-methyl-3-({4-[(5S)-5-methyl-2,5-dihydro-1H-pyrrol-3-yl]-1,3-thiazol-2-yl}sulfanyl)-7-oxo-1-azabicyclo[3.2.0]hept-2-ene-2-carboxylic acid]
MIC ([1]; ATCC13048, Concomitant (IPM:SM = 1:1), read-out: MIC): 0.125 µg/mL | MIC ([1]; ATCC13048, Concomitant (MEPM:SM = 1:1), read-out: MIC): ≤ 0.016 µg/mL | MIC ([1]; ATCC13048, Concomitant (MEPM:SM = 1:2), read-out: MIC): 0.063 µg/mL | MIC ([1]; ATCC13048, Concomitant (MEPM:SM = 1:4), read-out: MIC): 0.125 µg/mL | MIC ([1]; ATCC13048, Concomitant (PAPM:SM = 1:1), E. aerogenes ATCC13048, read-out: MIC concomitant): 0.25 µg/mL | MIC ([1]; ATCC13048, Concomitant (PIPC:SM = 1:1), E. aerogenes ATCC13048, read-out: MIC concomitant): 8 µg/mL | MIC ([1]; ATCC13048, Concomitant drug (MEPM:SM = 2:1), read-out: MIC): 0.016 µg/mL | MIC ([1]; ATCC13048, alone, read-out: MIC): 8 µg/mL | MIC ([1]; ATCC13048, drug alone, E. aerogenes ATCC13048, read-out: MIC alone): 8 µg/mL | MIC ([2]; GN346, Concomitant (AZT:SM = 1:1), C. freundii GN346, read-out: MIC concomitant): 8 µg/mL | MIC ([2]; GN346, Concomitant (BIPM:SM = 1:1), C. freundii GN346, read-out: MIC concomitant): 0.125 µg/mL | MIC ([2]; GN346, Concomitant (CAZ:SM = 1:1), C. freundii GN346, read-out: MIC concomitant): 8 µg/mL | MIC ([2]; GN346, Concomitant (CPFX:SM = 1:1), C. freundii GN346, read-out: MIC concomitant): 0.008 µg/mL | MIC ([2]; GN346, Concomitant (DRPM:SM = 1:1), C. freundii GN346, read-out: MIC concomitant): 0.063 µg/mL | MIC ([2]; GN346, Concomitant (IPM:SM = 1:1), read-out: MIC): 0.25 µg/mL | MIC ([2]; GN346, Concomitant (MEPM:SM = 1:1), read-out: MIC): 0.031 µg/mL | MIC ([2]; GN346, Concomitant (MEPM:SM = 1:2), read-out: MIC): 0.063 µg/mL | MIC ([2]; GN346, Concomitant (MEPM:SM = 1:4), read-out: MIC): 0.125 µg/mL | MIC ([2]; GN346, Concomitant (PAPM:SM = 1:1), C. freundii GN346, read-out: MIC concomitant): 0.25 µg/mL | MIC ([2]; GN346, Concomitant (PIPC:SM = 1:1), C. freundii GN346, read-out: MIC concomitant): 8 µg/mL | MIC ([2]; GN346, Concomitant drug (MEPM:SM = 2:1), read-out: MIC): 0.016 µg/mL | MIC ([2]; GN346, alone, read-out: MIC): 8 µg/mL | MIC ([2]; GN346, drug alone, C. freundii GN346, read-out: MIC alone): 8 µg/mL | MIC ([3]; TL2666, Concomitant (AZT:SM = 1:1), P. aeruginosa TL-2666, read-out: MIC concomitant): 8 µg/mL | MIC ([3]; TL2666, Concomitant (BIPM:SM = 1:1), P. aeruginosa TL-2666, read-out: MIC concomitant): 1 µg/mL | MIC ([3]; TL2666, Concomitant (CAZ:SM = 1:1), P. aeruginosa TL-2666, read-out: MIC concomitant): 8 µg/mL | MIC ([3]; TL2666, Concomitant (CPFX:SM = 1:1), P. aeruginosa TL-2666, read-out: MIC concomitant): 2 µg/mL | MIC ([3]; TL2666, Concomitant (DRPM:SM = 1:1), P. aeruginosa TL-2666, read-out: MIC concomitant): 1 µg/mL | MIC ([3]; TL2666, Concomitant (IPM:SM = 1:1), read-out: MIC): 1 µg/mL | MIC ([3]; TL2666, Concomitant (MEPM:SM = 1:1), read-out: MIC): 1 µg/mL | MIC ([3]; TL2666, Concomitant (MEPM:SM = 1:2), read-out: MIC): 2 µg/mL | MIC ([3]; TL2666, Concomitant (MEPM:SM = 1:4), read-out: MIC): 4 µg/mL | MIC ([3]; TL2666, Concomitant (PAPM:SM = 1:1), P. aeruginosa TL-2666, read-out: MIC concomitant): 8 µg/mL | MIC ([3]; TL2666, Concomitant (PIPC:SM = 1:1), P. aeruginosa TL-2666, read-out: MIC concomitant): 16 µg/mL | MIC ([3]; TL2666, Concomitant drug (MEPM:SM = 2:1), read-out: MIC): 0.5 µg/mL | MIC ([3]; TL2666, alone, read-out: MIC): 16 µg/mL | MIC ([3]; TL2666, drug alone, P. aeruginosa TL-2666, read-out: MIC alone): 16 µg/mL | MIC ([4]; TL2667, Concomitant (AZT:SM = 1:1), P. aeruginosa TL-2667, read-out: MIC concomitant): 8 µg/mL | MIC ([4]; TL2667, Concomitant (BIPM:SM = 1:1), P. aeruginosa TL-2667, read-out: MIC concomitant): 4 µg/mL | MIC ([4]; TL2667, Concomitant (CAZ:SM = 1:1), P. aeruginosa TL-2667, read-out: MIC concomitant): 8 µg/mL | MIC ([4]; TL2667, Concomitant (CPFX:SM = 1:1), P. aeruginosa TL-2667, read-out: MIC concomitant): 2 µg/mL | MIC ([4]; TL2667, Concomitant (DRPM:SM = 1:1), P. aeruginosa TL-2667, read-out: MIC concomitant): 2 µg/mL | MIC ([4]; TL2667, Concomitant (IPM:SM = 1:1), read-out: MIC): 8 µg/mL | MIC ([4]; TL2667, Concomitant (MEPM:SM = 1:1), read-out: MIC): 4 µg/mL | MIC ([4]; TL2667, Concomitant (MEPM:SM = 1:2), read-out: MIC): 4 µg/mL
